# Source: ChEMBL document CHEMBL2146461, “Synthesis and antiplasmodial activity of new heteroaryl derivatives of 7-chloro-4-aminoquinoline” (Bioorg Med Chem, 2012)
# Columns and labels:
# Plasmodium falciparum [1] = experiment: Antiplasmodial activity against chloroquine-sensitive Plasmodium falciparum D10 infected in human red blood cells after 72 hrs by parasite lactate dehydrogenase assay; type: functional, organism-based; details: D10, 72 h
# Plasmodium falciparum [2] = experiment: Ratio of chloroquine IC50 to compound IC50 for chloroquine-sensitive Plasmodium falciparum D10; type: functional
# Plasmodium falciparum [3] = experiment: Antiplasmodial activity against chloroquine-resistant Plasmodium falciparum W2 infected in human red blood cells after 72 hrs by parasite lactate dehydrogenase assay; type: functional, organism-based; details: W2, 72 h
# Plasmodium falciparum [4] = experiment: Ratio of chloroquine IC50 to compound IC50 for chloroquine-resistant Plasmodium falciparum W2; type: functional
# [5] = Resistance index, ratio of IC50 for chloroquine-resistant Plasmodium falciparum W2 to IC50 for chloroquine-sensitive Plasmodium falciparum D10; type: functional
# [6] = Cytotoxicity against human HMEC1 cells after 72 hrs by MTT assay; type: cell-based; details: HMEC-1, 72 h
# [7] = Selectivity index, ratio of IC50 for human HMEC1 cells to IC50 for chloroquine-resistant Plasmodium falciparum W2; type: toxicity, cell-based; details: read-out: Ratio IC50
# [8] = Lipophilicity, log P of the compound at pH 7.4; type: physicochemical; details: buffer
# [9] = n-octanol-KCl distribution coefficient, log D of the compound at pH 7.4; type: physicochemical
# [10] = Inhibition of beta-hematin formation assessed as ratio of drug to haemin for 50% inhibition by BHIA assay; type: functional
# [11] = Dissociation constant, pKa of the compound; type: physicochemical
SMILES,IC50 (Plasmodium falciparum [1]) [µM],Ratio IC50 (Plasmodium falciparum [2]),IC50 (Plasmodium falciparum [3]) [µM],Ratio IC50 (Plasmodium falciparum [4]),Ratio IC50 [5],IC50 [6] [µM],selectivity ratio [7],logP ([8]; read-out: logP),logD [9],IC50 [10] [molar ratio],logP [8],pKa [11]
CCN(CC)Cc1[nH]c(CNc2ccnc3cc(Cl)ccc23)nc1-c1ccccc1,0.028,0.58,0.0858,1.78,3.1,9.14,107,–,–,–,–,–
CN(C)c1cccc(-c2c[nH]c(CNc3ccnc4cc(Cl)ccc34)n2)c1,0.032,0.46,0.0535,7.78,1.7,8.97,168,5.86,5.48,–,–,–
Cc1ccc(-c2c[nH]c(CNc3ccnc4cc(Cl)ccc34)n2)cc1,0.0172,0.64,0.0407,7.1,2.4,7.77,191,4.95,4.66,–,–,–
Clc1ccc(-c2c[nH]c(CNc3ccnc4cc(Cl)ccc34)n2)cc1,0.0258,0.43,0.0605,4.77,2.3,7.45,123,5.34,5.1,–,–,–
Cn1cc(-c2ccccc2)nc1CNc1ccnc2cc(Cl)ccc12,0.03,0.46,0.0703,6.14,2.3,17.5,249,4.99,4.57,–,–,–
Clc1ccc2c(NCc3nc(-c4ccc(N5CCCC5)cc4)c[nH]3)ccnc2c1,0.0182,0.77,0.0353,12.22,1.9,2.43,69,8.87,8.53,–,–,–
CCN(CC)CCCC(C)Nc1ccnc2cc(Cl)ccc12 (configuration not stated) [CHLOROQUINE],–,–,–,–,–,> 38,–,–,–,1.94,–,–
Clc1ccc2c(NCc3ncc(CN4CCCC4)[nH]3)ccnc2c1,0.399,0.04,3.12,0.05,7.8,–,–,4.78,1.42,–,–,–
Clc1ccc2c(NCc3ncc[nH]3)ccnc2c1,0.152,0.11,0.384,0.39,2.5,–,–,2.82,2.39,–,–,–
Clc1ccc2c(Nc3ccc(CN4CCCC4)s3)ccnc2c1,2.66,0.01,4.22,0.04,1.6,–,–,3.93,2.98,–,–,–
Clc1ccc2c(NCc3nc(-c4ccccc4)c(CN4CCCC4)s3)ccnc2c1,0.0193,0.81,0.0601,4.93,3.1,30.4,506,6.78,6.01,–,–,–
Clc1ccc2c(NCc3nc(-c4ccccc4)c(CN4CCCC4)[nH]3)ccnc2c1,0.0229,0.71,0.0916,1.67,4,8.66,95,6.35,4.22,–,–,–
CN(C)c1ccc(-c2c[nH]c(CNc3ccnc4cc(Cl)ccc34)n2)cc1,0.0134,0.82,0.0209,13.8,1.6,6.67,320,5.07,4.75,0.42,–,–
CCN(CC)Cc1[nH]c(CNc2ccnc3cc(Cl)ccc23)nc1-c1ccc(Cl)cc1,0.0088,1.25,0.0276,10.47,3.1,2.44,89,–,–,–,–,–
Cn1c(CNc2ccnc3cc(Cl)ccc23)nc(-c2ccccc2)c1CN1CCCC1,0.0118,1.18,0.0265,16.27,2.2,28.6,1080,–,7.57,–,9.18,–
Clc1ccc2c(NCc3nc4ccccc4[nH]3)ccnc2c1,0.0706,0.2,0.256,1.68,3.6,2.4,9,3.78,3.56,–,–,–
CCN(CC)Cc1cnc(CNc2ccnc3cc(Cl)ccc23)[nH]1,0.191,0.07,3.8,0.04,19.9,–,–,–,–,–,–,–
CCN(CC)Cc1ccc(Nc2ccnc3cc(Cl)ccc23)s1,1.86,0.08,2.58,0.06,1.4,–,–,–,–,–,–,–
Clc1ccc(-c2nc(CNc3ccnc4cc(Cl)ccc34)[nH]c2CN2CCCC2)cc1,0.0055,2,0.0272,10.62,4.9,2.06,76,6.96,4.63,–,–,–
Clc1ccc2c(NCc3nc(-c4ccccc4)c[nH]3)ccnc2c1,0.116,0.14,0.0851,1.78,0.7,13.1,154,4.98,4.62,–,–,–
Clc1ccc2c(NCc3ccc(CN4CCCC4)s3)ccnc2c1,0.0125,1.11,0.0263,16.43,2.1,24.2,921,4.42,2.77,1.08,–,–
Fc1ccc(-c2nc(CNc3ccnc4cc(Cl)ccc34)[nH]c2CN2CCCC2)cc1,0.0257,0.57,0.197,2.11,7.7,–,–,6.78,4.77,–,–,–
Clc1ccc2c(NCc3nc(-c4ccccc4)co3)ccnc2c1,0.27,0.05,0.513,0.84,1.9,–,–,4.85,4.81,–,–,6.36
Cc1ccc(-c2nc(CNc3ccnc4cc(Cl)ccc34)[nH]c2CN2CCCC2)cc1,0.0074,1.49,0.0693,4.17,9.4,3.66,53,6.45,4,–,–,–
Clc1ccc2c(NCc3nc(-c4ccccc4)cs3)ccnc2c1,0.211,0.07,0.396,1.09,1.9,–,–,5.2,5.15,–,–,6.45
Fc1ccc(-c2c[nH]c(CNc3ccnc4cc(Cl)ccc34)n2)cc1,0.0521,0.28,0.0824,5.05,1.6,9.92,120,5.31,4.93,–,–,–
